ChEMBL document CHEMBL3885861, “Open TG-GATES”

Organism: Rattus norvegicus
Assay: Open TG-GATES - Regimen: Single
Format: toxicity, organism-based, Sprague-Dawley
Parameters: regimen Single, gender Male, age 6 weeks
Details: in vivo, po, 60 mg/kg, route gavage, dose level Middle; for APTT / Bas / Eos / Fbg / Hb / Ht / Lym / MCH / MCHC / MCV / Mono / Neu / PT / Plat / RBC / Ret / WBC: tissue Blood; for KIDNEY_L / KIDNEY_R / KIDNEY_TOTAL: tissue Kidney; for LIVER: tissue Liver; for A/G / ALP / ALT / AST / BUN / CRE / Ca / Cl / DBIL / GLC / IP / K / LDH / Na / PL / RALB / TBIL / TC / TG / TP / gamma-GTP: tissue Plasma

Cn1c(=O)c2[nH]cnc2n(C)c1=O.O [THEOPHYLLINE]
TERMINAL_BW (3 h): 215.5 g
APTT (3 h): 22.1 s
Bas (3 h): 0%
Eos (3 h): 1.2%
Fbg (3 h): 306 mg/dL
Hb (3 h): 12.6 g/dL
Ht (3 h): 38.3%
Lym (3 h): 68.6%
MCH (3 h): 20.2 pg
MCHC (3 h): 32.9%
MCV (3 h): 61.6 fL
Mono (3 h): 2.2%
Neu (3 h): 26.4%
PT (3 h): 15.4 s
Plat (3 h): 117 x10_4/uL
RBC (3 h): 622.6 x10_4/ul
Ret (3 h): 7.6%
WBC (3 h): 72.7 x10_2/uL
KIDNEY_L (3 h): 1 g
KIDNEY_R (3 h): 1 g
KIDNEY_TOTAL (3 h): 1.9 g
LIVER (3 h): 9.3 g
A/G (3 h): 1.3
ALP (3 h): 1415.2 IU/L
ALT (3 h): 44.8 IU/L
AST (3 h): 80.2 IU/L
BUN (3 h): 13 mg/dL
CRE (3 h): 0.2 mg/dL
Ca (3 h): 10.2 mg/dL
Cl (3 h): 108 meq/L
DBIL (3 h): 0 mg/dL
GLC (3 h): 184.4 mg/dL
IP (3 h): 7.3 mg/dL
K (3 h): 3.5 meq/L
LDH (3 h): 184.2 IU/L
Na (3 h): 140.6 meq/L
PL (3 h): 120 mg/dL
RALB (3 h): 3.2 g/dL
TBIL (3 h): 0.022 mg/dL
TC (3 h): 67.8 mg/dL
TG (3 h): 33.6 mg/dL
TP (3 h): 5.6 g/dL
gamma-GTP (3 h): 1.6 IU/L
TERMINAL_BW (6 h): 215.8 g
APTT (6 h): 23.9 s
Bas (6 h): 0%
Eos (6 h): 0.8%
Fbg (6 h): 302.8 mg/dL
Hb (6 h): 13.1 g/dL
Ht (6 h): 40%
Lym (6 h): 75.2%
MCH (6 h): 20.9 pg
MCHC (6 h): 32.7%
MCV (6 h): 64 fL
Mono (6 h): 3.2%
Neu (6 h): 19.4%
PT (6 h): 15.6 s
Plat (6 h): 119.8 x10_4/uL
RBC (6 h): 626.8 x10_4/ul
Ret (6 h): 7.4%
WBC (6 h): 74.1 x10_2/uL
KIDNEY_L (6 h): 0.9 g
KIDNEY_R (6 h): 0.9 g
KIDNEY_TOTAL (6 h): 1.8 g
LIVER (6 h): 9 g
A/G (6 h): 1.2
ALP (6 h): 1323.6 IU/L
ALT (6 h): 41.6 IU/L
AST (6 h): 86 IU/L
BUN (6 h): 11.6 mg/dL
CRE (6 h): 0.2 mg/dL
Ca (6 h): 10.6 mg/dL
Cl (6 h): 108.4 meq/L
DBIL (6 h): 0 mg/dL
GLC (6 h): 191 mg/dL
IP (6 h): 8.2 mg/dL
K (6 h): 3.5 meq/L
LDH (6 h): 212 IU/L
Na (6 h): 140.4 meq/L
PL (6 h): 126 mg/dL
RALB (6 h): 3.2 g/dL
TBIL (6 h): 0.018 mg/dL
TC (6 h): 70.2 mg/dL
TG (6 h): 36 mg/dL
TP (6 h): 5.7 g/dL
gamma-GTP (6 h): 1.2 IU/L
TERMINAL_BW (9 h): 211.1 g
APTT (9 h): 22.3 s
Bas (9 h): 0%
Eos (9 h): 0.8%
Fbg (9 h): 349.8 mg/dL
Hb (9 h): 12.9 g/dL
Ht (9 h): 38.8%
Lym (9 h): 73.2%
MCH (9 h): 20.6 pg
MCHC (9 h): 33.4%
MCV (9 h): 61.8 fL
Mono (9 h): 2%
Neu (9 h): 22%
PT (9 h): 15.8 s
Plat (9 h): 120.3 x10_4/uL
RBC (9 h): 630.2 x10_4/ul
Ret (9 h): 7.2%
WBC (9 h): 77.3 x10_2/uL
KIDNEY_L (9 h): 1 g
KIDNEY_R (9 h): 1 g
KIDNEY_TOTAL (9 h): 2 g
LIVER (9 h): 8.6 g
A/G (9 h): 1.2
ALP (9 h): 1618.2 IU/L
ALT (9 h): 43.8 IU/L
AST (9 h): 87.2 IU/L
BUN (9 h): 9.8 mg/dL
CRE (9 h): 0.2 mg/dL
Ca (9 h): 10.7 mg/dL
Cl (9 h): 107.2 meq/L
DBIL (9 h): 0 mg/dL
GLC (9 h): 165.2 mg/dL
IP (9 h): 8.3 mg/dL
K (9 h): 3.7 meq/L
LDH (9 h): 168.2 IU/L
Na (9 h): 140.2 meq/L
PL (9 h): 121.6 mg/dL
RALB (9 h): 3.2 g/dL
TBIL (9 h): 0.022 mg/dL
TC (9 h): 73.8 mg/dL
TG (9 h): 23.8 mg/dL
TP (9 h): 5.9 g/dL
gamma-GTP (9 h): 1.2 IU/L
TERMINAL_BW (24 h): 225.6 g
APTT (24 h): 22.2 s
Bas (24 h): 0%
Eos (24 h): 0.8%
Fbg (24 h): 293 mg/dL
Hb (24 h): 13.9 g/dL
Ht (24 h): 41.4%
Lym (24 h): 76.2%
MCH (24 h): 20.6 pg
MCHC (24 h): 33.6%
MCV (24 h): 61.2 fL
Mono (24 h): 3%
Neu (24 h): 18.6%
PT (24 h): 16 s
Plat (24 h): 115 x10_4/uL
RBC (24 h): 676.8 x10_4/ul
Ret (24 h): 6.5%
WBC (24 h): 97.8 x10_2/uL
KIDNEY_L (24 h): 1 g
KIDNEY_R (24 h): 1 g
KIDNEY_TOTAL (24 h): 2 g
LIVER (24 h): 10.1 g
A/G (24 h): 1.2
ALP (24 h): 1662.4 IU/L
ALT (24 h): 42.8 IU/L
AST (24 h): 73.4 IU/L
BUN (24 h): 15.6 mg/dL
CRE (24 h): 0.2 mg/dL
Ca (24 h): 10.9 mg/dL
Cl (24 h): 106 meq/L
DBIL (24 h): 0.006 mg/dL
GLC (24 h): 191.2 mg/dL
IP (24 h): 8.8 mg/dL
K (24 h): 4.1 meq/L
LDH (24 h): 168.4 IU/L
Na (24 h): 142.2 meq/L
PL (24 h): 135.4 mg/dL
RALB (24 h): 3 g/dL
TBIL (24 h): 0.006 mg/dL
TC (24 h): 78.2 mg/dL
TG (24 h): 60.6 mg/dL
TP (24 h): 5.5 g/dL
gamma-GTP (24 h): 1.4 IU/L
